# From the supplement of paper PMC11061612
# What was measured:
# [1] = system: 5637 (Bladder Carcinoma); assay: Bliss excess, mean over the matrix (fraction); higher = more synergy
# In short: (§1)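 After 24 hours at 37°C and 5% CO2 in 1536-well plates, cells in DMEM/F12 or RPMI plus 10% FBS received two-drug dose matrices for 72 hours. Viability came from CellTiter-Glo 2.0 luminescence and was scaled as inhibition, anchored at 0 by vehicle wells and at 1 by blank wells. Combination Emax is taken as the second-highest inhibition in the matrix, and Bliss excess as the observed combination effect less EA + EB − EA·EB, with EA and EB the single-agent effects.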
# [2] = system: A101D (Melanoma); assay: as above
# In short: as §1
# [3] = system: A204 (Rhabdomyosarcoma); assay: as above
# In short: as §1
# [4] = system: A253 (Head and Neck Carcinoma); assay: as above
# In short: as §1
# [5] = system: AU565 (Breast Carcinoma); assay: as above
# In short: as §1
# [6] = system: CAL-27 (Oral Cavity Carcinoma); assay: as above
# In short: as §1
# [7] = system: EPLC-272H (Other Solid Carcinomas); assay: as above
# In short: as §1
# [8] = system: ESO26 (Esophageal Adenocarcinoma); assay: as above
# In short: as §1
# [9] = system: GA-10 (Burkitt's Lymphoma); assay: as above
# In short: as §1
# [10] = system: GCT (Other Solid Carcinomas); assay: as above
# In short: as §1
# [11] = system: HCC1428 (Breast Carcinoma); assay: as above
# In short: as §1
# [12] = system: JIMT-1 (Breast Carcinoma); assay: as above
# In short: as §1
# [13] = system: KYSE-140 (Esophageal Squamous Cell Carcinoma); assay: as above
# In short: as §1
# [14] = system: LS-411N (Colorectal Carcinoma); assay: as above
# In short: as §1
# [15] = system: NB13 (Neuroblastoma); assay: as above
# In short: as §1
# [16] = system: NCI-H2228 (Lung Adenocarcinoma); assay: as above
# In short: as §1
# [17] = system: RH-41 (Rhabdomyosarcoma); assay: as above
# In short: as §1
# [18] = system: TE-10 (Esophageal Squamous Cell Carcinoma); assay: as above
# In short: as §1
# [19] = system: huH-1 (Hepatocellular Carcinoma); assay: as above
# In short: as §1
# [20] = system: CAL-27 (Oral Cavity Carcinoma); assay: combination Emax (second highest fraction inhibited in the dose matrix, 72 h); higher = more inhibition; extreme values may be limits of the assay
# In short: as §1
# 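For Bliss excess, mean over the matrix in this document: after 72 h of two-drug dosing.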
Structure (SMILES),Bliss excess [1],Bliss excess [2],Bliss excess [3],Bliss excess [4],Bliss excess [5],Bliss excess [6],Bliss excess [7],Bliss excess [8],Bliss excess [9],Bliss excess [10],Bliss excess [11],Bliss excess [12],Bliss excess [13],Bliss excess [14],Bliss excess [15],Bliss excess [16],Bliss excess [17],Bliss excess [18],Bliss excess [19],combination Emax [20]
"Cc1cc2ncnn2cc1Nc1ncc2c(n1)n(C1CCOCC1)c(=O)n2C [AZD7648] + CCN(CCO)CCCOc1ccc2c(Nc3cc(CC(=O)Nc4cccc(F)c4)[nH]n3)ncnc2c1 [AZD2811] (first compound max 10 µM, 7x7, partner max 1 µM)",0.0149,-0.0404,0.0034,0.0411,0.0433,0.0107,0.0143,-0.0299,0.112,0.0625,0.0436,-0.0141,0.033,0.0255,0.056,-0.0127,0.0902,0.043,0.0008,0.583
"Cc1cc2ncnn2cc1Nc1ncc2c(n1)n(C1CCOCC1)c(=O)n2C [AZD7648] + CN(C)CCCOc1ccc(-c2ccc3ncc4c(c3c2)n(C2CCOCC2)c(=O)n4C)cn1 [AZD0156] (first compound max 10 µM, 7x7, partner max 1 µM)",-0.0004,-0.0016,-0.0372,0.0149,0.0589,0.0004,-0.0251,-0.031,-0.0067,0.0042,-0.0052,0.0217,-0.0325,-0.0081,-0.0173,0.0707,0.0197,-0.0023,0.0674,0.222
"CN(CCO)CC[C@H](CSc1ccccc1)Nc1ccc(S(=O)(=O)NC(=O)c2ccc(N3CCC([C@@H](O)c4ccccc4-c4ccc(Cl)cc4)CC3)cc2)cc1S(=O)(=O)C(F)(F)F [AZD4320] + CCN(CCO)CCCOc1ccc2c(Nc3cc(CC(=O)Nc4cccc(F)c4)[nH]n3)ncnc2c1 [AZD2811] (first compound max 1 µM, 7x7, partner max 1 µM)",-0.0117,0.0418,-0.0553,0.0364,0.0712,0.0635,0.0873,-0.0266,-0.0203,-0.0089,0.16,0.0004,0.0082,0.0119,0.0975,-0.0025,0.0867,0.038,0.0161,0.752
"CN(CCO)CC[C@H](CSc1ccccc1)Nc1ccc(S(=O)(=O)NC(=O)c2ccc(N3CCC([C@@H](O)c4ccccc4-c4ccc(Cl)cc4)CC3)cc2)cc1S(=O)(=O)C(F)(F)F [AZD4320] + Cn1cnc2c(F)c(Nc3ccc(Br)cc3Cl)c(C(=O)NOCCO)cc21 [Selumetinib] (first compound max 1 µM, 7x7, partner max 3 µM)",-0.0332,-0.0099,-0.0054,0.0339,0.0474,0.0321,0.0108,0.0111,-0.0143,0.0789,0.0011,0.0367,0.0178,0.0165,0.0039,0.0075,0.0087,-0.0187,-0.0106,0.661
"COc1nnc2ccc(N3CCC(c4ccc(OCCN5CCN(C)C(=O)[C@H]5C)cc4)CC3)nn12 [AZD5153] + CN(CC[C@H](CSC1=CC=CC=C1)NC2=C(C=C(C=C2)S(=O)(=O)NC(=O)C3=CC=C(C=C3)N4CCC(CC4)[C@H](C5=CC=CC=C5C6=CC=C(C=C6)Cl)O)S(=O)(=O)C(F)(F)F)CCO [AZD4320] (first compound max 1 µM, 7x7, partner max 1 µM)",0.122,0.0648,0.0084,0.0043,0.0811,0.0151,-0.04,0.0233,-0.0394,0.0204,0.0114,0.0486,0.0588,0.0969,,0.0351,0.0427,,-0.0206,0.608
"N#Cc1cnc(Nc2cc(NC[C@H]3CNCCO3)c(C(F)(F)F)cn2)cn1 [SRA737] + CCc1c2c(nc3ccc(O)cc13)-c1cc3c(c(=O)n1C2)COC(=O)[C@]3(O)CC [SN-38] (first compound max 10 µM, 7x7, partner max 0.3 µM)",,,,,,,,,,,,,,,0.129,,,,,
"C[C@@H](c1ccc2nccn2c1)n1nnc2ncc(-c3cnn(C)c3)nc21 [Savolitinib] + Cc1c2c(nn1C)CSCc1cc(n(C)n1)CSc1cc(c3ccccc3c1)OCCCc1c(C(=O)O)n(C)c3c-2c(Cl)ccc13 [AZD5991] (first compound max 1 µM, 7x7, partner max 1 µM)",-0.0456,-0.0202,-0.0502,-0.0738,0.0125,-0.0839,-0.0128,-0.0026,-0.0354,-0.054,-0.0039,-0.0551,-0.0301,-0.0232,-0.0206,-0.0577,0.0471,,-0.0586,0.494
"CC(=O)c1c(C)c2cnc(Nc3ccc(N4CCNCC4)cn3)nc2n(C2CCCC2)c1=O [Palbociclib] + CN(CC[C@H](CSC1=CC=CC=C1)NC2=C(C=C(C=C2)S(=O)(=O)NC(=O)C3=CC=C(C=C3)N4CCC(CC4)[C@H](C5=CC=CC=C5C6=CC=C(C=C6)Cl)O)S(=O)(=O)C(F)(F)F)CCO [AZD4320] (first compound max 10 µM, 7x7, partner max 1 µM)",-0.0373,0.0351,-0.0397,-0.101,-0.0375,-0.0667,-0.0283,-0.0562,-0.0385,-0.0137,-0.082,-0.0507,-0.0355,-0.0089,,-0.0627,0.0142,,-0.0294,0.162
"Cc1cc2ncnn2cc1Nc1ncc2c(n1)n(C1CCOCC1)c(=O)n2C [AZD7648] + COc1cc([C@@H]2c3cc4c(cc3[C@@H](O[C@@H]3O[C@@H]5CO[C@@H](C)O[C@H]5[C@H](O)[C@H]3O)[C@H]3COC(=O)[C@H]23)OCO4)cc(OC)c1O [Etoposide] (first compound max 10 µM, 7x7, partner max 10 µM)",,,,,,,,,,,,,,,-0.0803,,,,,
"C[C@@H](c1ccc2nccn2c1)n1nnc2ncc(-c3cnn(C)c3)nc21 [Savolitinib] + CN(CC[C@H](CSC1=CC=CC=C1)NC2=C(C=C(C=C2)S(=O)(=O)NC(=O)C3=CC=C(C=C3)N4CCC(CC4)[C@H](C5=CC=CC=C5C6=CC=C(C=C6)Cl)O)S(=O)(=O)C(F)(F)F)CCO [AZD4320] (first compound max 1 µM, 7x7, partner max 1 µM)",-0.057,-0.0202,-0.0484,-0.0569,0.0022,-0.0514,-0.0701,-0.0467,-0.0196,-0.0527,-0.0206,-0.0427,0.0044,-0.0069,,-0.0527,-0.0093,,-0.0456,0.17
"CN(CCO)CC[C@H](CSc1ccccc1)Nc1ccc(S(=O)(=O)NC(=O)c2ccc(N3CCC([C@@H](O)c4ccccc4-c4ccc(Cl)cc4)CC3)cc2)cc1S(=O)(=O)C(F)(F)F [AZD4320] + Nc1ccn([C@@H]2O[C@H](CO)[C@@H](O)C2(F)F)c(=O)n1 [Gemcitabine] (first compound max 1 µM, 7x7, partner max 0.3 µM)",,,,,,,,,,,,,,,0.0074,,,,,
"C[C@@H](c1ccc2nccn2c1)n1nnc2ncc(-c3cnn(C)c3)nc21 [Savolitinib] + CC1(C)CCC(CN2CCN(c3ccc(C(=O)NS(=O)(=O)c4ccc(NCC5CCOCC5)c([N+](=O)[O-])c4)c(Oc4cnc5[nH]ccc5c4)c3)CC2)=C(c2ccc(Cl)cc2)C1 [Venetoclax] (first compound max 1 µM, 7x7, partner max 1 µM)",-0.0523,-0.0598,-0.0629,-0.0524,-0.0255,-0.0571,-0.0604,-0.0547,-0.0485,-0.0727,-0.0219,-0.0354,-0.0257,-0.0349,-0.073,-0.0605,-0.0483,,-0.0804,0.0502
"N#Cc1cnc(Nc2cc(NC[C@H]3CNCCO3)c(C(F)(F)F)cn2)cn1 [SRA737] + O=c1[nH]cc(F)c(=O)[nH]1 [5-Fluorouracil] (first compound max 10 µM, 7x7, partner max 20 µM)",,,,,,,,,,,,,,,-0.0699,,,,,
"COc1cc2ncnc(Nc3ccc(F)c(Cl)c3)c2cc1OCCCN1CCOCC1 [Gefitinib] + CC(C)n1c(=O)n(C)c2cnc3cc(F)c(-c4ccc(OCCCN5CCCCC5)nc4)cc3c21 [AZD1390] (first compound max 10 µM, 7x7, partner max 0.3 µM)",-0.0467,-0.083,-0.0563,-0.0551,-0.0219,-0.0668,-0.0207,-0.0832,-0.032,-0.065,-0.0393,-0.0248,-0.0919,-0.0463,-0.0433,-0.0704,-0.0378,,-0.0593,0.689
"Cc1nc(Nc2ncc(C(=O)Nc3c(C)cccc3Cl)s2)cc(N2CCN(CCO)CC2)n1 [Dasatinib] + CC(=O)Nc1cccc(-n2c(=O)n(C3CC3)c(=O)c3c(Nc4ccc(I)cc4F)n(C)c(=O)c(C)c32)c1 [Trametinib] (first compound max 2 µM, 7x7, partner max 1 µM)",0.0923,0.0947,-0.0955,-0.189,-0.0345,-0.053,-0.0746,-0.0892,0.0228,-0.119,-0.0334,0.0276,-0.132,0.0509,-0.0347,-0.049,-0.0946,,-0.0076,0.868
"N#Cc1cnc(Nc2cc(NC[C@H]3CNCCO3)c(C(F)(F)F)cn2)cn1 [SRA737] + C=CCn1c(=O)c2cnc(Nc3ccc(N4CCN(C)CC4)cc3)nc2n1-c1cccc(C(C)(C)O)n1 [AZD1775] (first compound max 10 µM, partner max 1 µM)",,,,,,,,,,,,,,,0.0322,,,,,
